The record followed here is ChEMBL document CHEMBL1148131, “Efficacy of scopadulcic acid A against Plasmodium falciparum in vitro” (J Nat Prod, 2002).

What all share (assay type): functional, organism-based
Test [1] deals with Plasmodium falciparum. Nature of the test: Antimalarial activity against Plasmodium falciparum D6 after 24 hrs by [3H]hypoxanthine uptake.
Test [2] deals with Plasmodium falciparum. Nature of the test: Antimalarial activity against Plasmodium falciparum W2 after 24 hrs by [3H]hypoxanthine uptake.
Test [3] relates to Plasmodium falciparum. Nature of the test: Antimalarial activity against multidrug-resistant Plasmodium falciparum TM91C235 after 24 hrs by [3H]hypoxanthine uptake.

As a reminder, the IC50 is the point on the concentration scale where inhibition reaches its midpoint. Lower therefore signals higher potency. For the compound `C[C@]12CC[C@]3(C1)[C@H](CC2=O)C[C@@H](OC(=O)c1ccccc1)[C@H]1[C@@](CO)(C(=O)O)CCC[C@@]13C` [SCOPADULCIC ACID A], the IC50 in the test on Plasmodium falciparum [1] stood at 27 µM; in the test on Plasmodium falciparum [2], 19 µM; in the test with Plasmodium falciparum [3], 23 µM.
In the case of `OC(c1cc(C(F)(F)F)nc2c(C(F)(F)F)cccc12)C1CCCCN1` (centres undefined) [MEFLOQUINE], the IC50 in the test on Plasmodium falciparum [3] is 0.059 µM.
